Test results taken from US20220315631A1, “STAPLED BETA-CATENIN LIGANDS” (Ohio State Innovation Foundation, priority 2019, published 2022).
Values belong to the molecule of their own block, whether it stands above or below them. Starred links: 1 amine or outer side, 2 acyl side, 3 side chain; linkers in the order of their positions; H or OH if unused. Positions of bridges follow the written chain, without caps; N, C: chain ends. Non-standard residues stand in square brackets, D forms with d. Residues, ends and D or L forms follow the SMILES beside them. Chains are numbered I, II in the order given. *: point of attachment. 5FAM = O=C1OC2(c3ccc(O)cc3Oc3cc(O)ccc32)c2ccc(C(=O)*)cc21; 2Nal = N[C@@H](Cc1ccc2ccccc2c1)C(=O)O; mXylylene = c1cc(C[*:1])cc(C[*:2])c1; Dap = NC[C@H](N)C(=O)O; AEEA = NCCOCCOCC(=O)O

Key:
β-catenin [1] = biological target: T1, β-catenin (Homo sapiens, UniProt P35222); assay: FP direct binding of FAM-labeled peptide 1 to GST-β-catenin; settings: 10 nM peptide 1 with serial dilutions of GST-β-catenin, read-out: KD or IC50
T1 construct: cells harboring plasmid pGEX-β-catenin(133-665)52 were grown in LB medium; made in house; host or cells: E. coli BL21 (DE3)
T1 sequence (P35222 133-665): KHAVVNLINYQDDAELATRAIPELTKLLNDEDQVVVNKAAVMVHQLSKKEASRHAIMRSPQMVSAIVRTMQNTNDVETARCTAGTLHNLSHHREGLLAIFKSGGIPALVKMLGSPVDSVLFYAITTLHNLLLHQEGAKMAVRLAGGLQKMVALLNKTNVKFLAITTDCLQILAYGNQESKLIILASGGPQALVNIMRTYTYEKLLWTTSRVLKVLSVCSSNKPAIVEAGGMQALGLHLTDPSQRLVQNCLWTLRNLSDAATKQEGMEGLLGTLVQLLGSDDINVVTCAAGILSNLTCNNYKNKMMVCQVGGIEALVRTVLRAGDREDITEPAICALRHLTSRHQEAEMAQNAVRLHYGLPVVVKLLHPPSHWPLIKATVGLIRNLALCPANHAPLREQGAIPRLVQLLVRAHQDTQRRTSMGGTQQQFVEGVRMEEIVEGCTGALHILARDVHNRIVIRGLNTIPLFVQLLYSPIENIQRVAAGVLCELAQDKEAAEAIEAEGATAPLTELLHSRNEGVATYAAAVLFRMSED
Experimental: Protein-Ligand Binding Assays. Peptide 1: Binding affinity was determined using FP. Peptide 1 (10 nM) was added to serial dilutions of GST-β-catenin in 20 mM Tris, 300 mM NaCl, pH 8.8, 0.01% Triton-X100 as reported previously. 34 After 1 h, aliquots were transferred from the reaction mixtures into black-on-black 384-well non-binding plates (Greiner) and FP was measured using a Tecan Infinite M1000 Pro plate reader. The KD value was calculated using KaleidaGraph v. 3.6 using the equation below.
(§1) Protein Purification. For β-catenin, E. coli BL21 (DE3) cells harboring plasmid pGEX-β-catenin(133-665)52 were grown in LB medium supplemented with 50 mg/L ampicillin at 37° C. to an OD600 of 0.6 before induction with 0.2 mM IPTG overnight at 30° C. Cells were harvested by centrifugation and lysed in lysis buffer (20 mM Tris, pH 8.0, 150 mM NaCl, 2 mM DTT, 1% Triton-X100, 200 mM EDTA, 10 mg/mL PMSF, and 0.2 mg/mL lysozyme) on ice for 20 min, followed by sonication (8 s off, 2 s on, 1 min total, performed twice at 70% amplitude). The homogenate was centrifuged (13,000 g for 30 min at 4° C. and the clear supernatant was loaded onto an equilibrated glutathione-agarose column. After exhaustive washing with wash buffer (20 mM Tris, pH 7.4, 150 mM NaCl, 2 mM DTT), the bound GST-β-catenin was eluted with wash buffer supplemented with 10 mM glutathione, concentrated, and stored at −80° C. in 30% glycerol.

MCF7 cells = assay: MTT cell viability assay, MCF7 (Wnt-independent) cells; format: cell-based; settings: up to 20 μM
Experimental: (§2) MTT Assay. SW480 (Wnt-addicted) and MCF7 (Wnt-independent) cells were seeded in 96-well plate with 3×10^3 cells per well, and allowed to grow overnight. […] After that, 10 μL of an MTT stock solution (5 mg/mL) was added into each well and the plate was incubated at 37° C. for 4 h. 100 μL of SDS-HCl solubilizing solution was added and the plate was incubated at 37° C. overnight. The absorbance of the formazan product formed was measured at 570 nm on a Tecan microtiter plate reader. Cells were incubated with serially diluted compounds for 72 hours in the presence of 10% FBS. Data reported represent the mean±SD of 3 independent experiments.
(§3) Cell Viability Assay. Cell viability was determined using the MTT assay. […] Trypsin was neutralized with the addition of warm DPBS and cells were pelleted down at 200 g for 5 min at 4° C. […] Com-pounds were serially diluted in DPBS with standardized DMSO concentration (0.5% v/v) and added to each well. […] After that, 10 μL of MTT solution was added to each well, followed by incubation for 4 h at 37° C., 5% CO2. […] The next day, A565 was determined using a Tecan M1000 Infinite plate reader and absorbance values were standardized against cell-free wells and normalized to untreated control cells. Data was analyzed using GraphPad Prism v. […]

β-catenin [2] = biological target: T1, β-catenin; assay: FP-based competition assay for binding to β-catenin
Experimental: Samples were transferred into black-on-black 384-well non-binding microplates (Greiner) and FP was measured using a Tecan M1000 Infinite plate reader. The data were analyzed using GraphPad Prism v. 8.0 and normalized to FP values corresponding to fully bound/unbound probe. All binding values reported are the mean±SD of independent experiments.
as §1, with “For β-catenin, E. coli BL21 (DE3) cells harboring plasmid pGEX-β-catenin(133-665)52 were grown in LB medium supplemented with 50 mg/L ampicillin at 37° C. to an OD600 of 0.6 before induction with 0.2 mM IPTG overnight at 30° C.” left out

SW480 cells = format: cell-based; settings: at the highest concentration tested (20 μM)
Experimental: as §2, §3

Human serum stability = format: in vitro ADME
Experimental: Human Serum Stability. […] After protein precipitation was complete, each aliquot was centrifuged (15000 g, 5 min, 4° C.) and analyzed by RP-HPLC. The percentage of remaining peptide at a given time point was determined by integrating the peak area and compared it to that of the untreated control (100%).

GST-β-catenin, P35222 = biological target: T2, GST-β-catenin, P35222; assay: fluorescence polarization; 10 nM FAM-peptide 1 against serial dilutions of GST-β-catenin
T2 chain: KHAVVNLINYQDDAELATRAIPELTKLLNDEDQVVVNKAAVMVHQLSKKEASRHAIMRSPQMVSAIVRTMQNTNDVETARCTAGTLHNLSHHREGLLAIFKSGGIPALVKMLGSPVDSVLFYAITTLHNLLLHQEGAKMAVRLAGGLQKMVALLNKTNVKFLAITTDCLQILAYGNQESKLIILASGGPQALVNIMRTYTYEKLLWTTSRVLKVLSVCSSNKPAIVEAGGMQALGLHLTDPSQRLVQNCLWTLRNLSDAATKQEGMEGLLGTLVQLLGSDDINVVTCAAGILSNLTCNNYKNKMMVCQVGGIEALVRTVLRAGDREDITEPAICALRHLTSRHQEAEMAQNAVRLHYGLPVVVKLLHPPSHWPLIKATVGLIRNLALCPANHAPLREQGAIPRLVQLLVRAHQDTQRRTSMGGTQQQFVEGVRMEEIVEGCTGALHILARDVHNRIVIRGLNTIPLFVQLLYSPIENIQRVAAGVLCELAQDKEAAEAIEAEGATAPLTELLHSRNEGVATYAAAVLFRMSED

Molecule: CC[C@H](C)[C@@H]1NC(=O)[C@@H](NC(=O)[C@H](CCC(=O)O)NC(=O)[C@@H]2CCCN2C(=O)[C@H](Cc2ccc(O)cc2)NC(=O)CNC(=O)CNC(C)=O)CC(=O)NCCCC[C@@H](C(=O)N[C@@H](Cc2c[nH]cn2)C(=O)N[C@@H](CC(C)C)C(=O)N[C@@H](CCC(N)=O)C(=O)N[C@@H](CCCNC(=N)N)C(=O)N[C@H](C(=O)N[C@H](C(=O)N[C@@H](CC(C)C)C(=O)NCCOCCOCC(=O)NCCOCCOCC(=O)N[C@@H](CNC(=O)[C@H](CCC(N)=O)NC(=O)[C@@H]2CCCN2C(=O)[C@@H]2CCCN2C(=O)[C@H](CCCNC(=N)N)NC(=O)[C@H](CCCNC(=N)N)NC(=O)[C@H](CCCNC(=N)N)NC(=O)[C@H](CCC(N)=O)NC(=O)[C@H](CCCNC(=N)N)NC(=O)[C@H](CCCNC(=N)N)NC(=O)[C@H](CCCCN)NC(=O)[C@H](CCCCN)NC(=O)[C@H](CCCNC(=N)N)NC(=O)CN)C(N)=O)[C@@H](C)CC)C(C)C)NC(=O)[C@H](CC(=O)O)NC(=O)[C@H](CC(C)C)NC1=O [peptide 4]
- effect on MCF7 cell viability (MCF7 cells): reduced the viability of MCF7 cells

Molecule: CC[C@H](C)[C@@H]1NC(=O)[C@@H](NC(=O)[C@H](CCC(=O)O)NC(=O)[C@@H]2CCCN2C(=O)[C@H](Cc2ccc(O)cc2)NC(=O)CNC(=O)CNC(C)=O)CC(=O)NCCCC[C@@H](C(=O)N[C@@H](Cc2c[nH]cn2)C(=O)N[C@@H](CC(C)C)C(=O)N[C@@H](CCC(N)=O)C(=O)N[C@@H](CCCNC(=N)N)C(=O)N[C@H](C(=O)N[C@H](C(=O)N[C@@H](CC(C)C)C(=O)NCCOCCOCC(=O)NCCOCCOCC(=O)N[C@@H](CNC(=O)[C@H](CCCNC(=N)N)NC(=O)[C@H](CCCNC(=N)N)NC(=O)[C@H](CCCNC(=N)N)NC(=O)[C@H](CCCNC(=N)N)NC(=O)[C@H](CCCNC(=N)N)NC(=O)[C@H](CCCNC(=N)N)NC(=O)[C@H](CCCNC(=N)N)NC(=O)[C@H](CCCNC(=N)N)NC(=O)[C@@H](N)CCCNC(=N)N)C(N)=O)[C@@H](C)CC)C(C)C)NC(=O)[C@H](CC(=O)O)NC(=O)[C@H](CC(C)C)NC1=O [peptide 5]
- effect on MCF7 cell viability (MCF7 cells): reduced the viability of MCF7 cells

Molecule: CC[C@H](C)[C@@H]1NC(=O)[C@@H](NC(=O)[C@H](CCC(=O)O)NC(=O)[C@@H]2CCCN2C(=O)[C@H](Cc2ccc(O)cc2)NC(C)=O)CC(=O)NCCCC[C@@H](C(=O)N[C@@H](Cc2c[nH]cn2)C(=O)N[C@@H](CC(C)C)C(=O)N[C@@H](CCC(N)=O)C(=O)N[C@@H](CCCNC(=N)N)C(=O)N[C@H](C(=O)N[C@H](C(=O)N[C@@H](CC(C)C)C(N)=O)[C@@H](C)CC)C(C)(C)O)NC(=O)[C@H](CC(=O)O)NC(=O)[C@H](CC(C)C)NC1=O [Peptide 37]
- binding affinity for β-catenin compared to peptide 9 (β-catenin [2]; relative to peptide 9): identical
- serum stability compared to peptide 9 (Human serum stability; relative to peptide 9): identical

B1: peptide 1 (peptide)
peptide: GGYPECILDCHLQRVIL
modifications: not checked
- Kd (GST-β-catenin, P35222): 18 nM

Second part, led by results:

- Kd (β-catenin [1]): 18 nM
Molecule: CC[C@H](C)[C@@H]1NC(=O)[C@@H](NC(=O)[C@H](CCC(=O)O)NC(=O)[C@@H]2CCCN2C(=O)[C@H](Cc2ccc(O)cc2)NC(=O)CNC(=O)CNC(=O)c2ccc3c(c2)C(=O)OC32c3ccc(O)cc3Oc3cc(O)ccc32)CSCc2cccc(c2)CSC[C@@H](C(=O)N[C@@H](Cc2c[nH]cn2)C(=O)N[C@@H](CC(C)C)C(=O)N[C@@H](CCC(N)=O)C(=O)N[C@@H](CCCNC(=N)N)C(=O)N[C@H](C(=O)N[C@H](C(=O)N[C@@H](CC(C)C)C(N)=O)[C@@H](C)CC)C(C)C)NC(=O)[C@H](CC(=O)O)NC(=O)[C@H](CC(C)C)NC1=O [peptide 1] (5FAM-GGYPECILDCHLQRVIL-NH2; linker 6-10 via mXylylene)

- lower affinity for β-catenin than peptide 2 (β-catenin [2]; relative to peptide 2): ~10 fold
Molecule: CC[C@H](C)[C@@H]1NC(=O)[C@@H](NC(=O)[C@H](CCC(=O)O)NC(=O)[C@@H]2CCCN2C(=O)[C@H](Cc2ccc(O)cc2)NC(=O)CNC(=O)CNC(C)=O)CC(=O)NCCCC[C@@H](C(=O)N[C@@H](CC(=O)O)C(=O)N[C@@H](CC(C)C)C(=O)N[C@@H](CCC(N)=O)C(=O)N[C@@H](CCCNC(=N)N)C(=O)N[C@H](C(=O)N[C@@H](C)C(=O)N[C@@H](CC(C)C)C(=O)NCCOCCOCC(=O)NCCOCCOCC(=O)N[C@@H](CNC(=O)CC[C@@H]2NC(=O)[C@@H](CCCNC(=N)N)NC(=O)[C@H](CCCNC(=N)N)NC(=O)[C@@H](CCCNC(=N)N)NC(=O)[C@H](CCCNC(=N)N)NC(=O)[C@H](Cc3ccc4ccccc4c3)NC(=O)[C@@H](Cc3ccccc3)NC2=O)C(N)=O)C(C)C)NC(=O)[C@H](Cc2c[nH]cn2)NC(=O)[C@H](CC(C)C)NC1=O [peptide 3] (I: Ac-GGYPEDILHKDLQRVAL[AEEA][AEEA][Dap]-NH2 / II: cyclo([2Nal]R[dR]R[dR]E[dF]); lactam I:6-I:10 (inferred); amide I:20-II:6 (inferred); ring closure inferred)
- viability of SW480 cells (SW480 cells): only slight decreases

- IC50 (β-catenin [2]; IC50, competition with FAM-labeled peptide 1 (10 nM), 50 nM GST-β-catenin, read-out: KD or IC50): 305 ± 19 nM
- half-life at 100 μM (Human serum stability; human, human serum diluted 1:4 in DPBS, human serum, read-out: serum t1/2 (converted)): ~720 min
Molecule: CC[C@H](C)[C@@H]1NC(=O)[C@@H](NC(=O)[C@H](CCC(=O)O)NC(=O)[C@@H]2CCCN2C(=O)[C@H](Cc2ccc(O)cc2)NC(=O)CNC(=O)CNC(C)=O)CC(=O)NCCCC[C@@H](C(=O)N[C@@H](Cc2c[nH]cn2)C(=O)N[C@@H](CC(C)C)C(=O)N[C@@H](CCC(N)=O)C(=O)N[C@@H](CCCNC(=N)N)C(=O)N[C@H](C(=O)N[C@H](C(=O)N[C@@H](CC(C)C)C(=O)NCCC(N)=O)[C@@H](C)CC)C(C)(C)C)NC(=O)[C@H](CC(=O)O)NC(=O)[C@H](CC(C)C)NC1=O [Peptide 9, Ac-GGYPEDILDKHLQRZIL(β-Ala)-NH2]
